Experimental findings from US11168093B2, “Thienopyridine inhibitors of RIPK2” (Celgene Corporation, priority 2018, dated 2021) are described below.

SMILES strings stand for the structures. Where only a bound is given, the exact number is not on record here.

Sequence of RIPK2 enzyme (O43353 whole entry): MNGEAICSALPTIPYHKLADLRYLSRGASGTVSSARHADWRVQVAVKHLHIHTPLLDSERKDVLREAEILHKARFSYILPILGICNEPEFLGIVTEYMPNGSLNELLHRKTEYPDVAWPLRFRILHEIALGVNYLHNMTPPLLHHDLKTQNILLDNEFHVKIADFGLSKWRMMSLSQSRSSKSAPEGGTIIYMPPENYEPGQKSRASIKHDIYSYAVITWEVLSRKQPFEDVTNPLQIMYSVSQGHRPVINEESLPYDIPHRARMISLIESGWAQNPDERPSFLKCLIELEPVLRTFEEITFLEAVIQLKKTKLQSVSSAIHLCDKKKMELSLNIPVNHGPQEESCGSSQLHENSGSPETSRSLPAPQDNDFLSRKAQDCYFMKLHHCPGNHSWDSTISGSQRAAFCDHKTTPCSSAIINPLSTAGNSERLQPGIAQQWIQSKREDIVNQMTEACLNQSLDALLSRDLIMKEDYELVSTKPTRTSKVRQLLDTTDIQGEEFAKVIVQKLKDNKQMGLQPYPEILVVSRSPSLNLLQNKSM

The assay deals with RIPK2 enzyme (Homo sapiens (Human), UniProt O43353). Nature of the assay: RIPK2 inhibition assay, TR-FRET LanthaScreen Tracer 199 screening assay. Type of assay: binding. Particulars: 5 nM RIPK2 enzyme, Tracer 199 at 50 nM, Eu-anti-His Antibody at 2 nM, 1 hour incubation. In a few lines:
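TR-FRET binding displacement: 5 nM RIPK2, 50 nM Tracer 199, 2 nM Eu-anti-His antibody in 1× kinase reaction buffer, 1 h, read at room temperature (340 ex/665 and 615 em). No-enzyme background subtracted; percent inhibition versus uninhibited controls, IC50 from unconstrained variable-slope fit.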
A general note: TR-FRET usually uses a lanthanide donor and a delayed reading to cut background.
A word on the IC50: it is the concentration that gives 50% inhibition. Take `C[C@H]1[C@@H](c2cc3c(Nc4ccc5scnc5c4F)ccnc3s2)CCCN1C` [Example 61, N-(2-((2S,3S)-1,2-dimethylpiperidin-3-yl)thieno[2,3-b]pyridin-4-yl)-4-fluorobenzo[d]thiazol-5-amine]: the IC50 was at most 10 nM.
`CCN1CCC[C@H](c2cc3c(Nc4ccc5scnc5c4F)ccnc3s2)[C@H]1C` [Example 62, N-(2-((2R,3S)-1-ethyl-2-methylpiperidin-3-yl)thieno[2,3-b]pyridin-4-yl)-4-fluorobenzo[d]thiazol-5-amine] returned an IC50 of at most 10 nM.
Molecule `CCN1CCC[C@@H](c2cc3c(Nc4ccc5scnc5c4F)ccnc3s2)[C@@H]1C` [Example 63, N-(2-((2S,3R)-1-ethyl-2-methylpiperidin-3-yl)thieno[2,3-b]pyridin-4-yl)-4-fluorobenzo[d]thiazol-5-amine] yielded an IC50 of at most 10 nM.
`CCN1CCC[C@@H](c2cc3c(Nc4ccc5scnc5c4F)ccnc3s2)[C@H]1C` [Example 64, N-(2-((2R,3R)-1-ethyl-2-methylpiperidin-3-yl)thieno[2,3-b]pyridin-4-yl)-4-fluorobenzo[d]thiazol-5-amine] displayed an IC50 of at most 10 nM.
For `CCN1CCC[C@H](c2cc3c(Nc4ccc5scnc5c4F)ccnc3s2)[C@@H]1C` [Example 65, N-(2-((2S,3S)-1-ethyl-2-methylpiperidin-3-yl)thieno[2,3-b]pyridin-4-yl)-4-fluorobenzo[d]thiazol-5-amine], the IC50 was at most 10 nM.
Next, `C[C@H]1NCCC=C1c1cc2c(Nc3c(F)cc4scnc4c3F)ccnc2s1` [Example 66a, (R)-4,6-difluoro-N-(2-(2-methyl-1,2,5,6-tetrahydropyridin-3-yl)thieno[2,3-b]pyridin-4-yl)benzo[d]thiazol-5-amine]: at most 10 nM; `C[C@@H]1NCCC=C1c1cc2c(Nc3c(F)cc4scnc4c3F)ccnc2s1` [Example 66b, (S)-4,6-difluoro-N-(2-(2-methyl-1,2,5,6-tetrahydropyridin-3-yl)thieno[2,3-b]pyridin-4-yl)-benzo[d]thiazol-5-amine]: at most 10 nM; `C[C@H]1NCCC[C@@H]1c1cc2c(Nc3c(F)cc4scnc4c3F)ccnc2s1` [Example 67a, 4,6-difluoro-N-(2-((2R,3S)-2-methylpiperidin-3-yl)thieno[2,3-b]pyridin-4-yl)benzo[d]thiazol-5-amine]: at most 10 nM.
With `C[C@H]1NCCC[C@H]1c1cc2c(Nc3c(F)cc4scnc4c3F)ccnc2s1` [Example 67b, 4,6-difluoro-N-(2-((2R,3R)-2-methylpiperidin-3-yl)thieno[2,3-b]pyridin-4-yl)benzo[d]thiazol-5-amine], the IC50 was at most 10 nM.
As to `C[C@@H]1NCCC[C@H]1c1cc2c(Nc3c(F)cc4scnc4c3F)ccnc2s1` [Example 68a, 4,6-difluoro-N-(2-((2S,3R)-2-methylpiperidin-3-yl)thieno[2,3-b]pyridin-4-yl)benzo[d]thiazol-5-amine], the IC50 was in the range of 10 to 20 nM.
As for `C[C@@H]1NCCC[C@@H]1c1cc2c(Nc3c(F)cc4scnc4c3F)ccnc2s1` [Example 68b, 4,6-difluoro-N-(2-((2S,3S)-2-methylpiperidin-3-yl)thieno[2,3-b]pyridin-4-yl)benzo[d]thiazol-5-amine], the IC50 was at most 10 nM.
For the molecule `C[C@@H]1C(c2cc3c(Nc4c(F)cc5scnc5c4F)ccnc3s2)=CCCN1C` [Example 69, (R)—N-(2-(1,2-dimethyl-1,2,5,6-tetrahydropyridin-3-yl)thieno[2,3-b]pyridin-4-yl)-4,6-difluorobenzo[d]thiazol-5-amine], the concentration for half-maximal inhibition (IC50) is at most 10 nM.
Regarding `C[C@@H]1[C@H](c2cc3c(Nc4c(F)cc5scnc5c4F)ccnc3s2)CCCN1C` [Example 70b, N-(2-((2R,3R)-1,2-dimethylpiperidin-3-yl)thieno[2,3-b]pyridin-4-yl)-4,6-difluorobenzo[d]-thiazol-5-amine], the IC50 is at most 10 nM.
The molecule `C[C@H]1[C@H](c2cc3c(Nc4c(F)cc5scnc5c4F)ccnc3s2)CCCN1C` [Example 71a, N-(2-((2S,3R)-1,2-dimethylpiperidin-3-yl)thieno[2,3-b]pyridin-4-yl)-4,6-difluorobenzo[d]thiazol-5-amine] yielded an IC50 of at most 10 nM.
Molecule `C[C@H]1[C@@H](c2cc3c(Nc4c(F)cc5scnc5c4F)ccnc3s2)CCCN1C` [Example 71b, N-(2-((2S,3S)-1,2-dimethylpiperidin-3-yl)thieno[2,3-b]pyridin-4-yl)-4,6-difluorobenzo[d]thiazol-5-amine] came in with an IC50 of at most 10 nM.
The molecule `CCN1CCC=C(c2cc3c(Nc4c(F)cc5scnc5c4F)ccnc3s2)[C@H]1C` [Example 72a, (R)—N-(2-(1-ethyl-2-methyl-1,2,5,6-tetrahydropyridin-3-yl)thieno[2,3-b]-pyridin-4-yl)-4,6-difluorobenzo[d]thiazol-5-amine] came in with an IC50 of at most 10 nM.
In turn, `CCN1CCC=C(c2cc3c(Nc4c(F)cc5scnc5c4F)ccnc3s2)[C@@H]1C` [Example 72b, (S)—N-(2-(1-ethyl-2-methyl-1,2,5,6-tetrahydropyridin-3-yl)thieno[2,3-b]pyridin-4-yl)-4,6-difluorobenzo[d]thiazol-5-amine] had an IC50 of at most 10 nM.
As for `CCN1CCC[C@@H](c2cc3c(Nc4c(F)cc5scnc5c4F)ccnc3s2)[C@H]1C` [Example 73b, N-[2-((2R,3R)1-ethyl-2-methyl-3-piperidyl)thieno[2,3-b]pyridin-4-yl]-4,6-difluoro-1,3-benzothiazol-5-amine], the IC50 is at most 10 nM.
The molecule `CCN1CCC[C@H](c2cc3c(Nc4c(F)cc5scnc5c4F)ccnc3s2)[C@@H]1C` [Example 74b, N-(2-((2S,3S)-1-ethyl-2-methylpiperidin-3-yl)thieno[2,3-b]pyridin-4-yl)-4,6-difluorobenzo[d]thiazol-5-amine] gave an IC50 of at most 10 nM.
`CC1NCCC1c1cc2c(Nc3cc4ncsc4cc3F)ccnc2s1` (stereo not shown) [Example 75, 6-fluoro-N-(2-(2-methylpyrrolidin-3-yl)thieno[2,3-b]pyridin-4-yl)benzo[d]thiazol-5-amine] returned an IC50 of at most 10 nM.
For `CCN1CCC(c2cc3c(Nc4cc5ncsc5cc4F)ccnc3s2)C1C` (stereo not shown) [Example 76, N-(2-(1-ethyl-2-methylpyrrolidin-3-yl)thieno[2,3-b]pyridin-4-yl)-6-fluorobenzo[d]thiazol-5-amine], the 50% inhibitory concentration (IC50) was in the range of 10 to 20 nM.
`CC1C(c2cc3c(Nc4cc5ncsc5cc4F)ccnc3s2)CCN1CCO` (stereo not shown) [Example 77, 2-(3-(4-((6-fluorobenzo[d]thiazol-5-yl)amino)thieno[2,3-b]pyridin-2-yl)-2-methylpyrrolidin-1-yl)ethan-1-ol] showed an IC50 of 10 to 20 nM.
With `CC1(C)NCCC1c1cc2c(Nc3cc4ncsc4cc3F)ccnc2s1` (stereo not shown) [Example 78a, N-(2-(2,2-dimethylpyrrolidin-3-yl)thieno[2,3-b]pyridin-4-yl)-6-fluorobenzo[d]thiazol-5-amine], the IC50 was at most 10 nM.
For `CCN1CCC(c2cc3c(Nc4cc5ncsc5cc4F)ccnc3s2)C1(C)C` (stereo not shown) [Example 79, N-(2-(1-ethyl-2,2-dimethylpyrrolidin-3-yl)thieno[2,3-b]pyridin-4-yl)-6-fluorobenzo[d]thiazol-5-amine] the value was 20 to 50 nM.
Next, `CC1(C)C(c2cc3c(Nc4cc5ncsc5cc4F)ccnc3s2)CCN1CCO` (stereo not shown) [Example 80, 2-(3-(4-((6-fluorobenzo[d]thiazol-5-yl)amino)thieno[2,3-b]pyridin-2-yl)-2,2-dimethyl-pyrrolidin-1-yl)ethan-1-ol]: 20 to 50 nM.
`Fc1cc2scnc2cc1Nc1ccnc2sc(C3CCNC34CCOC4)cc12` (stereo not shown) [Example 81, N-(2-(7-oxa-1-azaspiro[4.4]nonan-4-yl)thieno[2,3-b]pyridin-4-yl)-6-fluorobenzo[d]thiazol-5-amine] yielded an IC50 of at least 50 nM.
As to `CN1CCC(c2cc3c(Nc4cc5ncsc5cc4F)ccnc3s2)C12CCOC2` (stereo not shown) [Example 82, 6-fluoro-N-(2-(1-methyl-7-oxa-1-azaspiro[4.4]nonan-4-yl)thieno[2,3-b]pyridin-4-yl)benzo[d]thiazol-5-amine], the IC50 was at least 50 nM.
In the case of `CCN1CCC(c2cc3c(Nc4cc5ncsc5cc4F)ccnc3s2)C12CCOC2` (stereo not shown) [Example 83, N-(2-(1-ethyl-7-oxa-1-azaspiro[4.4]nonan-4-yl)thieno[2,3-b]pyridin-4-yl)-6-fluorobenzo[d]thiazol-5-amine], the IC50 is at least 50 nM.
The molecule `Fc1cc2scnc2cc1Nc1ccnc2sc(C3CCNC34CCOCC4)cc12` (stereo not shown) [Example 84, N-(2-(8-oxa-1-azaspiro[4.5]decan-4-yl)thieno[2,3-b]pyridin-4-yl)-6-fluorobenzo[d]thiazol-5-amine] returned an IC50 of at least 50 nM.
For `CN1CCC(c2cc3c(Nc4cc5ncsc5cc4F)ccnc3s2)C12CCOCC2` (stereo not shown) [Example 85, 6-fluoro-N-(2-(1-methyl-8-oxa-1-azaspiro[4.5]decan-4-yl)thieno[2,3-b]pyridin-4-yl)benzo[d]thiazol-5-amine], the IC50 was at least 50 nM.
In turn, `CCN1CCC(c2cc3c(Nc4cc5ncsc5cc4F)ccnc3s2)C12CCOCC2` (stereo not shown) [Example 86, N-(2-(1-ethyl-8-oxa-1-azaspiro[4.5]decan-4-yl)thieno[2,3-b]pyridin-4-yl)-6-fluorobenzo[d]thiazol-5-amine] gave an IC50 of at least 50 nM.
The molecule `CC1NCCC1c1cc2c(Nc3ccc4scnc4c3F)ccnc2s1` (stereo not shown) [Example 87, 4-fluoro-N-(2-(2-methylpyrrolidin-3-yl)thieno[2,3-b]pyridin-4-yl)benzo[d]thiazol-5-amine] gave an IC50 of at most 10 nM.
Turning to `CCN1CCC(c2cc3c(Nc4ccc5scnc5c4F)ccnc3s2)C1C` (stereo not shown) [Example 88, N-(2-(1-ethyl-2-methylpyrrolidin-3-yl)thieno[2,3-b]pyridin-4-yl)-4-fluorobenzo[d]thiazol-5-amine], the IC50 is at most 10 nM.
As to `CC1C(c2cc3c(Nc4ccc5scnc5c4F)ccnc3s2)CCN1CCO` (stereo not shown) [Example 89, 2-(3-(4-((4-fluorobenzo[d]thiazol-5-yl)amino)thieno[2,3-b]pyridin-2-yl)-2-methylpyrrolidin-1-yl)ethan-1-ol], the IC50 was at most 10 nM.
